In this test the target is Peroxisomal multifunctional enzyme type 2 (Homo sapiens) (UniProt P51659). The test is described as follows: ligand-induced stabilization of human HSD17B4 – biophysical, DSF, SYPRO orange, recombinant protein (AID 509). The following applies: recombinant HSD17B4 DSF thermal shift, protein 2 µM, buffer 10 mM HEPES, pH 7.5, NaCl 150 mM, stronger effect = higher value.
Peroxisomal multifunctional enzyme type 2 (Homo sapiens), sequence (P51659 whole entry, looked up): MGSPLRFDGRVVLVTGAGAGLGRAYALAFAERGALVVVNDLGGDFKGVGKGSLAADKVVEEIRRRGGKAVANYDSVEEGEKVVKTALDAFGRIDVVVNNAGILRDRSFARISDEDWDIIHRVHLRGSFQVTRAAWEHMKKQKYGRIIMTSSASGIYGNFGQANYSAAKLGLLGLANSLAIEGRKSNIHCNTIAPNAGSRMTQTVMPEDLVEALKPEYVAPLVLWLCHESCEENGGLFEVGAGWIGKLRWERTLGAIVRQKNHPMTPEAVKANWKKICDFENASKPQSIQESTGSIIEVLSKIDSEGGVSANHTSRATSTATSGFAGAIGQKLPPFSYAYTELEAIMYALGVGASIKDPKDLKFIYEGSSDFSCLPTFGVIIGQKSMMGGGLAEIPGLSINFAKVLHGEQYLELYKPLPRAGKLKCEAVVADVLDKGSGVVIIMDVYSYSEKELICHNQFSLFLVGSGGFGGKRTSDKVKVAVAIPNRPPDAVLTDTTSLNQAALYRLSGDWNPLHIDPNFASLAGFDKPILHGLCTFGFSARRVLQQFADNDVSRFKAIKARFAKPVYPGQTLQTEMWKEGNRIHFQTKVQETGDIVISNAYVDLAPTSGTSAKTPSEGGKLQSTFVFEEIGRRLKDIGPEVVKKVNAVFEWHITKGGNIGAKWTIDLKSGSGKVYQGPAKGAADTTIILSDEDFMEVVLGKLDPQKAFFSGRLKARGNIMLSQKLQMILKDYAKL

For the compound `O=C1C2(Cl)C3(Cl)C4(Cl)C(Cl)(Cl)C5(Cl)C3(Cl)C1(Cl)C5(Cl)C24Cl` (configuration not stated), for the setting “at 100 µM”, the Tm shift turned out to be 3 Celsius. On to `Oc1cc(O)c2cc(O)c(-c3ccc(O)c(O)c3)[o+]c2c1`, for which, where the note is “at 10 µM”, the Tm shift came to 2.1 Celsius.

(Values after PubChem BioAssay AID509.)
